Measured values as given in patent US10344019B2 (priority 2010, dated 2019).
pEC50: −log10 of the molar value.

Assays:
Assay type in all cases: cell-based
[1] = system: HCV 3a RLuc cells (NS5A chimeric genotype 1b Con1 replicon with consensus genotype 3a NS5A gene); experiment: microbe, parasite or virus in culture; conditions: Hepatitis C virus, read-out: 3a, genotype 3a NS5A chimeric replicon
In short: (§1)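 Replicon cells stably carrying the listed RLuc-encoding dicistronic replicons were seeded and treated with DMSO serial dilutions of compound (10 mM stocks) diluted into culture medium. After 72 h, cells were lysed and Renilla luciferase activity measured. EC50 was derived by non-linear regression.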

[2] = system: HCV 2a JFH-1 Rluc cells (dicistronic genotype 2a JFH-1 replicon, RLuc reporter); experiment: microbe, parasite or virus in culture; conditions: Hepatitis C virus, genotype 2a JFH-1 RLuc replicon; read-out: 2a JFH
In short: (§2)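 Replicons used: genotype 1b Con1, 1a H77, 2a JFH-1, and a 2a JFH-1 chimera with J6-strain NS5A (M31 present), all dicistronic.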

[3] = system: HCV 1a RLuc cells (dicistronic genotype 1a H77 replicon, RLuc reporter); experiment: microbe, parasite or virus in culture; conditions: Hepatitis C virus, genotype 1a H77 RLuc replicon; read-out: 1a
In short: as §2

[4] = system: HCV 2b Rluc cells (NS5A chimeric genotype 2a JFH-1 replicon with genotype 2b MD2b-1 NS5A gene, M31 present); experiment: microbe, parasite or virus in culture; conditions: Hepatitis C virus, read-out: 2b
In short: as §1

[5] = system: HCV 1b RLuc cells (dicistronic genotype 1b Con1 replicon, RLuc reporter); experiment: microbe, parasite or virus in culture; conditions: Hepatitis C virus, read-out: 1b (nM)
In short: as §2

[6] = system: Q30R in genotype 1a NS5A, 1a Rluc replicon transfected into Huh-7 cured-51 cells; experiment: HCV replicon assay, resistance mutant 1a Q30R; conditions: Hepatitis C virus, Huh-7, read-out: 1a Q30R
Procedure: Evaluation of cell-based anti-HCV activity: Antiviral potency (EC50) was determined using a Renilla luciferase (RLuc)-based HCV replicon reporter assay. To perform the assay for genotype 1 and 2a JFH-1, HCV 1b RLuc cells (harboring a dicistronic genotype 1b Con1 replicon that encodes a RLuc reporter), or HCV 1a RLuc cells (harboring a dicistronic genotype 1a H77 replicon that encodes a RLuc reporter), or HCV 2a JFH-1 Rluc cells (harboring a dicistronic genotype 2a JFH-1 replicon that encodes a RLuc reporter) were dispensed into 384-well plates. To perform the assay for genotype 2a (with M31 present) or 2b, HCV 2a Rluc or 2b Rluc cells (both with M31 present) harboring a dicistronic NS5A chimeric genotype 2a JFH-1 replicon that encodes a RLuc reporter and either genotype 2a J6 strain NS5A gene or genotype 2b MD2b-1 NS5A gene (based on Los Alamos HCV database isolates, both with M31 present) respectively, were dispensed into 384-well plates. To perform the assay for genotype 3 and 4, HCV 3a RLuc or 4a Rluc cells harboring a dicistronic NS5A chimeric genotype 1b Con1 replicon that encodes a RLuc reporter and either a consensus genotype 3a NS5A gene or genotype 4a NS5A gene (based on Los Alamos HCV database isolates) respectively, were dispensed into 384-well plates. Compounds were re-suspended in DMSO at a concentration of 10 mM and serially diluted in DMSO either manually or using an automated pipeting instrument. Serially diluted compounds were mixed with cell culture media and added to the seeded cells. […] 72 hours later, cells were lysed and Renilla luciferase activity quantified as recommended by the manufacturer (Promega-Madison, Wis.). Non-linear regression was performed to calculate EC50 values.
To determine the antiviral potency (EC50) against resistance mutants, resistance mutations, including M28T, Q30R, Q30H, L31M, and Y93C in genotype 1a NS5A and Y93H in genotype 1b NS5A, were introduced individually into either 1a Rluc or 1b Rluc replicons described above by site directed mutagenesis. Replicon RNA of each resistant mutant was transfected into Huh-7 cured-51 cells and antiviral potency was determined on these transfected cells as described above.

[7] = system: HCV 2a Rluc cells (NS5A chimeric genotype 2a JFH-1 replicon with genotype 2a J6 strain NS5A gene, M31 present); experiment: HCV replicon reporter assay, genotype 2a J6 (M31 present); conditions: Hepatitis C virus, read-out: 2a J6
In short: as §2

Compound | pEC50 [1] | pEC50 [2] | pEC50 [3] | pEC50 [4] | EC50 [5] [nM] | pEC50 [6] | pEC50 [7]
CC[C@H](C)[C@H](NC(=O)OC)C(=O)N1C[C@@H](C)C[C@H]1c1ncc(-c2ccc3c(c2)COc2cc4c(ccc5nc([C@@H]6C[C@H](COC)CN6C(=O)[C@H](NC(=O)OC)c6ccccc6)[nH]c54)cc2-3)[nH]1 [Example 639] | 9.00 to 12.00 | 9.00 to 12.00 | 9.00 to 12.00 | 9.00 to 12.00 | 0.011 | 9.00 to 12.00 | 9.00 to 12.00
COC(=O)N[C@H](C(=O)N1[C@@H](C)CC[C@H]1c1nc2ccc3cc4c(cc3c2[nH]1)OCc1cc(-c2cnc([C@@H]3C[C@H](C)CN3C(=O)[C@@H](NC(=O)OC)[C@@H](C)OC)[nH]2)ccc1-4)C(C)C [Example 612] | 9.00 to 12.00 | 9.00 to 12.00 | 9.00 to 12.00 | 9.00 to 12.00 |  | 9.00 to 12.00 | 9.00 to 12.00
CC#Cc1cc2nc([C@@H]3CCCN3C(=O)[C@@H](NC(=O)OC)C(C)C)[nH]c2c2ccc(-c3ccc4c(ccc5nc([C@@H]6C[C@H](COC)CN6C(=O)[C@H](N)c6ccccc6)[nH]c54)c3)cc12 [Example 593] | 9.00 to 12.00 | 9.00 to 12.00 | 9.00 to 12.00 | 7.36 to 9.00 | 0.014 | 7.36 to 9.00 | 9.00 to 12.00
COC[C@H]1C[C@@H](c2ncc(-c3ccc4c(c3)COc3cc5c(ccc6nc([C@@H]7C[C@@H]8C[C@@H]8N7C(=O)[C@@H](NC(=O)OC)C(C)C)[nH]c65)cc3-4)[nH]2)N(C(=O)[C@H](NC(=O)OC)c2ccccc2)C1 [Example 636] | 9.00 to 12.00 | 9.00 to 12.00 | 9.00 to 12.00 | 9.00 to 12.00 | 0.011 | 9.00 to 12.00 | 9.00 to 12.00
COC(=O)N[C@H](C(=O)N1[C@@H](C)CC[C@H]1c1ncc(-c2cc3c4c(c2)OCc2cc(-c5cnc([C@@H]6C[C@H](C)CN6C(=O)[C@H](NC(=O)OC)c6ccccc6)[nH]5)cc(c2-4)OC3)[nH]1)C(C)C [Example 586] | 9.00 to 12.00 | 9.00 to 12.00 | 9.00 to 12.00 | 9.00 to 12.00 | 0.011 | 9.00 to 12.00 | 9.00 to 12.00
COC[C@H]1C[C@@H](c2ncc(-c3ccc4c(c3)COc3cc5c(cc3-4)CCc3nc([C@@H]4CCCN4C(=O)[C@@H](NC(=O)OC)C(C)C)[nH]c3-5)[nH]2)N(C(=O)[C@H](NC(=O)OC)c2ccccc2)C1 [Example 606] | 9.00 to 12.00 | 9.00 to 12.00 | 9.00 to 12.00 | 9.00 to 12.00 | 0.034 | 9.00 to 12.00 | 9.00 to 12.00
COC[C@H]1C[C@@H](c2nc3c([nH]2)-c2cc4c(cc2CC3)-c2ccc(-c3cnc([C@@H]5CC[C@H](C)N5C(=O)[C@@H](NC(=O)OC)C(C)C)[nH]3)cc2CO4)N(C(=O)[C@H](NC(=O)OC)c2ccccc2)C1 [Example 614] | 9.00 to 12.00 | 9.00 to 12.00 | 9.00 to 12.00 | 9.00 to 12.00 |  | 9.00 to 12.00 | 9.00 to 12.00
CC[C@H](C)[C@H](NC(=O)OC)C(=O)N1[C@@H](C)CC[C@H]1c1ncc(-c2ccc3c(c2)COc2cc4c(ccc5nc([C@@H]6C[C@H](COC)CN6C(=O)[C@H](NC(=O)OC)c6ccccc6)[nH]c54)cc2-3)[nH]1 [Example 637] | 9.00 to 12.00 | 9.00 to 12.00 | 9.00 to 12.00 | 9.00 to 12.00 |  | 9.00 to 12.00 | 9.00 to 12.00
COC[C@H]1C[C@@H](c2ncc(-c3ccc4c(c3)COc3cc5c(ccc6nc([C@@H]7CC[C@H](C)N7C(=O)[C@@H](NC(=O)OC)C(C)C)[nH]c65)cc3-4)[nH]2)N(C(=O)[C@@H](NC(=O)OC)[C@@H](C)OC)C1 [Example 610] | 9.00 to 12.00 | 9.00 to 12.00 | 9.00 to 12.00 | 9.00 to 12.00 | 0.013 | 9.00 to 12.00 | 9.00 to 12.00
